{"source": "patent US20260158172A1", "about": "“CELL DEATH METHOD USING CRISPR/CAS SYSTEM HAVING SINGLE-STRAND BREAK ACTIVITY AND PARP INHIBITOR” (INSTITUTE FOR BASIC SCIENCE, priority 2023, published 2026)", "key": {"HCT-116 cells": {"system": "HCT-116 cells", "test": "Cell viability (CellTiter-Glo), Experimental Example 2: CRISPR/nCas composition for cell death with or without olaparib", "assay_type": "cell-based", "conditions": "relative cell viability, HCT-116, Olaparib (+): olaparib 1 μM, sgRNA delivered as nCas9 D10A RNP, Mock = no guide RNA", "method": "(§1) A total of 0.5×10^4 cells were mixed with 1 μM olaparib (AZD2281) (Selleckchem, #S1060), 1 μM rucaparib (Selleckchem, #S4948), 0.1 μM niraparib (MK-4827) (Selleckchem, #S2741), 2 μM veliparib (ABT-888) (Selleckchem, #S1004), or 10 µM iniparib (BSI-201) (Selleckchem, #S1087), and seeded onto 24-well plates.\n(§2) To transfect RNPs, cells were transfected with 665 ng of the Cas protein of each Embodiment and 95 ng of the sgRNA of each Embodiment using a Lipofectamine CRISPRMAX Cas9 Transfection Reagent (Invitrogen, #CMAX00015), and then cultured for 3 days. When treated together with a PARP inhibitor, the PARP inhibitor was treated according to Experimental Example 1.6, and the RNPs were treated one day thereafter.\n(§3) Cell viability was measured using a CellTiter-Glo Luminescent Cell Viability Assay (Promega, #G7571). After the transfected cells were cultured for 3 days, the cells were detached using Trypsin-EDTA (0.25%) (Gibco, #25200056). The cells were diluted in 400 μL of DMEM, followed by dispensing 100 μL of the cells, mixed with 100 μL of the CellTiter-Glo Reagent, and then incubated at room temperature for 10 minutes. Luminescence signals were measured using an Infinite 200 (Tecan) in a white opaque 96-well plate (Corning, #3917).\n(§4) To evaluate the cell death effects of a CRISPR/nCas composition for cell death and a PARP inhibitor, the following experiment was conducted. Specifically, Hela cells and HCT-116 cells cultured according to Experimental Example 1.1 were treated with a PARP inhibitor (olaparib) and a CRISPR/nCas composition for cell death having the compositions shown in the following table.\n(§5) The nCas protein used in this experiment was prepared according to Experimental Example 1.2, and the sgRNA used was prepared according to Experimental Example 1.3. The nCas protein and the sgRNA were administered to the cells in the form of RNPs according to Experimental Example 1.7. In the case of the PARP inhibitor, the concentrations disclosed in the above table were applied to each cell according to Experimental Example 1.6.\n(§6) Thereafter, cell viability was measured according to Experimental Example 1.8."}, "HeLa cells": {"system": "HeLa cells", "test": "Cell viability (CellTiter-Glo), Experimental Example 2: CRISPR/nCas composition for cell death with or without olaparib", "assay_type": "cell-based", "conditions": "relative cell viability, sgRNA delivered as nCas9 D10A RNP, Mock = no guide RNA", "method": "as §1, §2, §3, §4, §5, §6"}, "HCT-116 tumors": {"system": "HCT-116 tumors", "test": "Tumor growth inhibition experiment in HCT-116 tumor xenograft mouse model", "assay_type": "in vivo", "conditions": "for Volume of Tumor (mm^3, Average, n = 4): HCT-116 xenograft, BALB/c nude mice, intratumoral injection every two days, eight injections, olaparib 28.5 μg", "method": "For the delivery of RNP, lipid nanoparticles (LNPs) were prepared using an ethanol dilution method. All lipids (the molar ratio of C12-200/DOPE/cholesterol/DMG-PEG/DOTAP in the LNPs was fixed at 35/16/46.5/2.5/11.11) were dissolved in ethanol. RNPs (with a molar ratio of sgRNA to Cas9 protein of 1:1) were dissolved in PBS (pH 7.4). The two solutions were rapidly mixed by pipetting at a PBS-to-ethanol ratio of 3:1 (v/v) and a total lipid-to-sgRNA ratio of 20:1 (w/w), followed by incubation at room temperature for 15 minutes. For in vivo experiments, the RNP-loaded LNP formulation was purified by dialysis against PBS for 2 hours using a dialysis kit (Pur-A-Lyzer Midi Dialysis Kits, MWCO 3.5 kDa) and then concentrated using Amicon Ultra-15 centrifugal filters (MWCO 50 kDa), followed by intratumoral injection (50 μg of sgRNA-loaded LNP per injection). The above C12-200 was purchased from Cayman Chemical. The above DOPE, DOTAP, and DMG-PEG (MW 2000) were purchased from Avanti Polar Lipids. The above Cholesterol, the Pur-A-Lyzer Midi Dialysis Kit (MWCO, 3.5 kDa), and the Amicon Ultra-15 centrifugal filters (MWCO, 50 kDa) were purchased from Sigma. All chemicals were used without further purification.\nFemale BALB/c nude mice (5 weeks old) were purchased from Orient Bio and used for all animal experiments. The mice were handled in accordance with the guidelines of the Institutional Animal Care and Use Committee of Ulsan National Institute of Science and Technology ([…]-23-09). In the case of the xenograft model, 5×10^6 HCT116 cells stably expressing Cas9WT were suspended in 60 μL of PBS (pH 7.4) and mixed with 60 μL of Matrigel (BD Bioscience), followed by subcutaneous injection into the flank of each mouse. Tumor volume and body weight were measured every two days. Tumor volume was calculated using the following formula.\nIn the above formula, V represents the volume, a represents the length of the long axis, and b represents the length of the short axis.\nWhen the tumor volume reached approximately 80 mm^3, the mice were randomly divided into multiple groups for experimentation.\nTo evaluate the antitumor efficacy of the administered materials in each group, mice bearing tumors established according to Experimental Example 1.11 were anesthetized with 1.5% isoflurane, and the administered material (PBS or LNP) was intratumorally injected every two days. A total of eight injections were performed over a period of 14 days, and the mice were sacrificed on day 25.\nThe tumor growth inhibition rate was calculated using the following formula.\nHere, VDay0,treatment and VDay24,treatment represent the tumor volumes of the treatment group on day 0 and day 24, respectively, and VDay0,control and VDay24,control represent the tumor volumes of the control group administered with PBS on day 0 and day 24, respectively.\nThe tumor xenograft mouse model prepared according to Experimental Example 1.10 was randomly divided into four groups. Then, a PARP inhibitor and a CRISPR/nCas composition for cell death were administered according to Experimental Example 1.11 to confirm tumor growth inhibition effects. Specifically, 28.5 μg of olaparib diluted in PBS and the CRISPR/nCas composition for cell death were administered."}}}
{"smiles": "O=C(c1cc(Cc2n[nH]c(=O)c3ccccc23)ccc1F)N1CCN(C(=O)C2CC2)CC1", "note": "[Olaparib, olaparib]", "values": [{"measurement": "Average", "setting": "HCT-116 cells; average of Rep 1-3", "result": 1.05}, {"measurement": "Rep 1 (rel)", "setting": "HCT-116 cells", "result": 0.9889}, {"measurement": "Rep 2 (rel)", "setting": "HCT-116 cells", "result": 1.027}, {"measurement": "Rep 3 (rel)", "setting": "HCT-116 cells", "result": 1.131}, {"measurement": "Rep 1 (rel)", "setting": "HeLa cells; Olaparib (+): olaparib 1 μM", "result": 1.163}, {"measurement": "Rep 2 (rel)", "setting": "HeLa cells; Olaparib (+): olaparib 1 μM", "result": 0.967}, {"measurement": "Rep 3 (rel)", "setting": "HeLa cells; Olaparib (+): olaparib 1 μM", "result": 1.02}, {"measurement": "Average", "setting": "HeLa cells; average of Rep 1-3, Olaparib (+): olaparib 1 μM", "result": 1.05}, {"measurement": "Volume of Tumor (mm^3, Average, n = 4)", "setting": "HCT-116 tumors; Day 0", "result": 82.1, "unit": "mm^3"}, {"measurement": "Volume of Tumor (mm^3, Average, n = 4)", "setting": "HCT-116 tumors; Day 2", "result": 117.0, "unit": "mm^3"}, {"measurement": "Volume of Tumor (mm^3, Average, n = 4)", "setting": "HCT-116 tumors; Day 4", "result": 172.6, "unit": "mm^3"}, {"measurement": "Volume of Tumor (mm^3, Average, n = 4)", "setting": "HCT-116 tumors; Day 6", "result": 241.8, "unit": "mm^3"}, {"measurement": "Volume of Tumor (mm^3, Average, n = 4)", "setting": "HCT-116 tumors; Day 8", "result": 320.3, "unit": "mm^3"}, {"measurement": "Volume of Tumor (mm^3, Average, n = 4)", "setting": "HCT-116 tumors; Day 10", "result": 371.2, "unit": "mm^3"}, {"measurement": "Volume of Tumor (mm^3, Average, n = 4)", "setting": "HCT-116 tumors; Day 12", "result": 476.0, "unit": "mm^3"}, {"measurement": "Volume of Tumor (mm^3, Average, n = 4)", "setting": "HCT-116 tumors; Day 14", "result": 542.7, "unit": "mm^3"}, {"measurement": "Volume of Tumor (mm^3, Average, n = 4)", "setting": "HCT-116 tumors; Day 16", "result": 610.7, "unit": "mm^3"}, {"measurement": "Volume of Tumor (mm^3, Average, n = 4)", "setting": "HCT-116 tumors; Day 18", "result": 702.9, "unit": "mm^3"}, {"measurement": "Volume of Tumor (mm^3, Average, n = 4)", "setting": "HCT-116 tumors; Day 20", "result": 847.8, "unit": "mm^3"}, {"measurement": "Volume of Tumor (mm^3, Average, n = 4)", "setting": "HCT-116 tumors; Day 22", "result": 907.4, "unit": "mm^3"}, {"measurement": "Volume of Tumor (mm^3, Average, n = 4)", "setting": "HCT-116 tumors; Day 24", "result": 996.7, "unit": "mm^3"}, {"measurement": "Tumor Inhibition Rate (%)", "setting": "HCT-116 tumors; calculated from tumor volumes on day 0 and day 24 versus PBS control, HCT-116 xenograft mice", "result": 8.10, "unit": "%"}]}
